Measurements: the supplement of paper PMC10331698
± gives the standard deviation of the averaged measurements.

Tests used:
Assay in all cases: level (log10 ratio to DMSO vehicle control); higher = higher biomarker level / cell amount than vehicle control
Details in all cases: in DMSO
[1] = compound: C=CC(=O)OCC(F)(F)C(F)(F)C(F)(F)C(F)(F)C(F)(F)C(F)(F)C(F)(F)F [1H,1H-Perfluorooctyl acrylate]
Description: (§1)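 BioMAP Diversity Plus panel of 12 human primary cell co-culture systems (3C, 4H, LPS, SAg, BT, BF4T, BE3C, CASM3C, HDF3CGF, KF3CT, MyoF, Mphg). Compounds were added 1 h before stimulation and left for 24 h (MyoF 48 h; BT 72 h for soluble read-outs or 6 d for IgG). Biomarkers were read by ELISA, cytotoxicity by SRB, PBMC viability and proliferation by Alamar Blue. Each well value was divided by the mean of 8 DMSO control wells on the same plate and log10 transformed; duplicate blinded samples were tested at 4 concentrations.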

[2] = compound: COC(=O)CCC(F)(F)C(F)(F)C(F)(F)C(F)(F)F [Methyl 2H,2H,3H,3H-perfluoroheptanoate]
Description: as §1

Perfluoropentanoic acid = compound: O=C(O)C(F)(F)C(F)(F)C(F)(F)C(F)(F)F [Perfluoropentanoic acid]
Description: as §1

[3] = compound: O=C(O)C(F)(F)C(F)(F)C(F)F [4H-Perfluorobutanoic acid]
Description: as §1

[4] = compound: O=C(O)C(F)(F)OC(F)(F)C(F)(F)OC(F)(F)C(=O)O [Perfluoro-3,6-dioxaoctane-1,8-dioic acid]
Description: as §1

[5] = compound: O=S(=O)(O)C(F)(F)C(F)(F)C(F)(F)C(F)(F)C(F)(F)C(F)(F)F [Perfluorohexanesulfonic acid]
Description: as §1

Test System	level (log10) ([1]; 6700 nM)	level (log10) ([1]; 20000 nM)	level (log10) ([1]; 60000 nM)	level (log10) ([2]; 6700 nM)	level (log10) ([2]; 20000 nM)	level (log10) ([2]; 60000 nM)	level (log10) (Perfluoropentanoic acid; 6700 nM)	level (log10) (Perfluoropentanoic acid; 20000 nM)	level (log10) (Perfluoropentanoic acid; 60000 nM)	level (log10) ([3]; 6700 nM)	level (log10) ([3]; 20000 nM)	level (log10) ([3]; 60000 nM)	level (log10) ([4]; 6700 nM)	level (log10) ([4]; 20000 nM)	level (log10) ([4]; 60000 nM)	level (log10) ([5]; 6700 nM)	level (log10) ([5]; 20000 nM)	level (log10) ([5]; 60000 nM)
CASM3C:CD106/VCAM-1	0.007 ± 0.016	0.014 ± 0.0014	-0.0055 ± 0.0092	-0.021 ± 0.027	-0.019 ± 0.0071	-0.0085 ± 0.005	-0.0225 ± 0.0078	-0.0565 ± 0.029	-0.009 ± 0.0057	0.031 ± 0.057	0.041 ± 0.014	0.04 ± 0.0085	-0.005 ± 0.0014	-0.003 ± 0.0042	0.0175 ± 0.042	-0.0145 ± 0.023	-0.0175 ± 0.016	-0.047 ± 0.024
CASM3C:CD141/Thrombomodulin	-0.002 ± 0.0028	0.0035 ± 0.011	0.002 ± 0.017	-0.042 ± 0.024	-0.017 ± 0.048	0.003 ± 0.017	-0.0065 ± 0.016	-0.0135 ± 0.035	0.0105 ± 0.005	-0.0005 ± 0.016	0 ± 0.081	-0.0145 ± 0.028	0.0045 ± 0.018	0.002 ± 0.0028	0.017 ± 0.0071	0.0005 ± 0.0064	0.0015 ± 0.005	-0.0055 ± 0.022
CASM3C:CD142/Tissue Factor	0.0095 ± 0.005	-0.004 ± 0.0014	-0.0005 ± 0.0092	-0.021 ± 0.027	0.001 ± 0.013	0.015 ± 0.017	-0.002 ± 0.0071	-0.013 ± 0.024	-0.0225 ± 0.056	0.0045 ± 0.14	-0.039 ± 0.093	-0.0415 ± 0.037	-0.012 ± 0.013	-0.0275 ± 0.022	0.0215 ± 0.053	0.0145 ± 0.047	-0.0005 ± 0.023	0.005 ± 0.0014
CASM3C:CXCL8/IL-8	0.004 ± 0.0099	-0.006 ± 0.011	0.016 ± 0.0028	-0.0135 ± 0.011	-0.0115 ± 0.005	-0.0085 ± 0.013	-0.01 ± 0.0085	-0.019 ± 0.011	-0.0015 ± 0.013	-0.003 ± 0.0057	0.004 ± 0.0042	0.0135 ± 0.033	0.016 ± 0.042	0.0125 ± 0.011	0.023 ± 0.0071	-0.006 ± 0.013	-0.003	0.026 ± 0.014
CASM3C:CXCL9/MIG	0.001 ± 0.0028	-0.0015 ± 0.011	0.0005 ± 0.0035	-0.006 ± 0.0085	0.0035 ± 0.0035	0.015 ± 0.0028	0.001 ± 0.062	-0.0015 ± 0.036	0.043 ± 0.017	-0.0035 ± 0.028	0.0125 ± 0.00071	0.032 ± 0.017	-0.002 ± 0.0057	-0.011 ± 0.013	0.03 ± 0.047	0.003 ± 0.0099	0.0045 ± 0.0064	0.012 ± 0.0014
CASM3C:HLA-DR	0.0075 ± 0.00071	0.002 ± 0.018	0.0045 ± 0.013	-0.0185 ± 0.005	-0.014 ± 0.018	-0.011 ± 0.028	-0.019 ± 0.014	-0.022 ± 0.023	0.003 ± 0.054	-0.007 ± 0.0028	0.0435 ± 0.033	0.006 ± 0.024	-0.022 ± 0.018	-0.0385 ± 0.019	0.0135 ± 0.063	0.0105 ± 0.015	-0.001 ± 0.013	-0.008 ± 0.028
CASM3C:IL-6	-0.0135 ± 0.029	-0.027 ± 0.048	-0.0125 ± 0.03	-0.019 ± 0.021	-0.025 ± 0.0028	0.0005 ± 0.028	-0.02 ± 0.028	-0.028 ± 0.027	0.014 ± 0.047	-0.0125 ± 0.0035	0.0045 ± 0.023	0.0225 ± 0.021	-0.0065 ± 0.047	-0.014 ± 0.027	0.0285 ± 0.00071	-0.027 ± 0.017	-0.0225 ± 0.0021	-0.0025 ± 0.036
CASM3C:LDLR	0.011	0.006 ± 0.0099	0.016 ± 0.016	0.016 ± 0.0099	0.0095 ± 0.005	0.033 ± 0.028	-0.0085 ± 0.0064	-0.0045 ± 0.0078	-0.0095 ± 0.025	-0.0785 ± 0.037	-0.039 ± 0.0042	-0.0235 ± 0.026	0.015 ± 0.034	-0.0115 ± 0.0035	0.0155 ± 0.015	-0.014 ± 0.0042	-0.0055 ± 0.0035	0.0155 ± 0.039
CASM3C:M-CSF	-0.0205 ± 0.032	0.0135 ± 0.00071	-0.0075 ± 0.0021	-0.0155 ± 0.016	-0.031 ± 0.021	0.013 ± 0.054	-0.0055 ± 0.016	-0.004 ± 0.017	0.0045 ± 0.032	0.004 ± 0.045	-0.009 ± 0.016	0.059 ± 0.027	0.0205 ± 0.016	-0.0025 ± 0.0035	0.0385 ± 0.011	-0.007 ± 0.028	-0.012 ± 0.014	0.0305 ± 0.00071
CASM3C:PAI-I	0 ± 0.0014	-0.0075 ± 0.011	0.004 ± 0.0057	-0.0195 ± 0.0078	-0.006 ± 0.0099	-0.0095 ± 0.016	-0.0095 ± 0.011	-0.007 ± 0.0042	0.0005 ± 0.011	0.009 ± 0.0071	0.006 ± 0.0071	0.0075 ± 0.0021	0.0025 ± 0.00071	0.0005 ± 0.0078	0.0155 ± 0.0064	0.001 ± 0.013	0.002 ± 0.0028	0.006
CASM3C:Proliferation	-0.0105 ± 0.029	0.0435 ± 0.013	-0.028 ± 0.027	-0.001 ± 0.0028	-0.038 ± 0.0042	0.0025 ± 0.0035	0.0185 ± 0.021	-0.0305 ± 0.067	0.0215 ± 0.052	0.0045 ± 0.011	-0.0185 ± 0.066	0.0045 ± 0.04	0.0055 ± 0.0035	-0.0135 ± 0.025	-0.0075 ± 0.0092	0.014 ± 0.014	0.002 ± 0.014	0.0185 ± 0.011
CASM3C:SRB	-0.007 ± 0.011	0.0005 ± 0.0078	0.0005 ± 0.00071	0.003 ± 0.0042	-0.003 ± 0.013	-0.0015 ± 0.0035	0.0095 ± 0.0021	-0.008 ± 0.0014	0.004 ± 0.0099	-0.0015 ± 0.0078	-0.002 ± 0.0071	0 ± 0.0099	0.0035 ± 0.0021	-0.006 ± 0.0028	0.0085 ± 0.005	-0.0045 ± 0.0021	-0.0015 ± 0.012	-0.0025 ± 0.016
CASM3C:Serum Amyloid A	0.03 ± 0.014	0.032 ± 0.044	0.0485 ± 0.013	0.009	-0.0065 ± 0.013	-0.0005 ± 0.022	-0.003 ± 0.0071	-0.013 ± 0.011	-0.0045 ± 0.033	-0.056 ± 0.038	-0.083 ± 0.055	-0.0715 ± 0.11	-0.012 ± 0.0028	-0.0235 ± 0.011	0.0265 ± 0.06	-0.0215 ± 0.057	-0.0085 ± 0.015	0.007 ± 0.021
HDF3CGF:CCL2/MCP-1	-0.0055 ± 0.018	-0.0235 ± 0.021	-0.046 ± 0.03	-0.039 ± 0.021	-0.0375 ± 0.06	-0.014 ± 0.014	-0.03 ± 0.017	-0.054 ± 0.013	-0.022 ± 0.048	-0.0385 ± 0.021	-0.018 ± 0.051	0.049 ± 0.0071	0 ± 0.016	0.005 ± 0.0071	0.0135 ± 0.016	0.009 ± 0.0057	0.007 ± 0.014	0.021 ± 0.031
